Measurements from patent US20060178307A1, “Modulation of NMDA receptor currents via orexin receptor and/or CRF receptor” (priority 2005, published 2006).
Where no end group is shown, it is not given here.

Tests used:
[1] = test system: AMPAR/NMDAR ratio of EPSCs in VTA dopamine cells; experiment: AMPAR/NMDAR ratio after 5-min bath application to VTA slices; type: cell-based, rat; conditions: orexin A 100 nM 5 min, n=8
Protocol: The next study investigated whether orexin signaling in the VTA is required for the long-term plasticity associated with the development of behavioral sensitization. Long-term synaptic plasticity at excitatory synapses on VTA neurons was examined 24 hr after a 5-day treatment of cocaine (15 mg/kg) or saline (0.9%), a time course shown to induce long-lasting locomotor sensitization to cocaine (Thomas et al., 2001), with or without the OXR1 antagonist, SB 334867 (10 mg/kg, FIG. 5). To assay for synaptic plasticity, the relative contributions of AMPARs and NMDARs to EPSCs recorded in VTA dopamine cells were compared. Consistent with the potentiation observed following acute and 7-day cocaine treatments (Borgland et al., 2004), 5-day treatment with cocaine potentiated the AMPAR/NMDAR ratio compared to saline controls (FIG. 5A, saline: 0.4±0.07, n=4; cocaine: 0.8±0.1, n=4, p<0.05). […]
To calculate the AMPAR/NMDAR ratio, an average of 12 EPSCs at +40 mV was computed before and after application of the NMDAR blocker, AP5 (50 μM) for 5 min. NMDAR responses were calculated by subtracting the average response in the presence of AP5 (AMPAR only) from that seen in its absence; the peak of the AMPAR EPSC was divided by the peak of the NMDAR EPSC to yield an AMPAR/NMDAR ratio.

[2] = test system: NMDA-induced current; experiment: Holding current change on bath-applied NMDA; type: cell-based, rat; conditions: NMDA 50 μM 30 sec
Protocol: As a final test to determine at what time point after orexin treatment NMDARs were altered, NMDA (50 μM, 30 sec) was bath-applied, and the change in holding current was recorded. There was a significant increase in NMDA-induced current 15 min after orexin A (100 nM) application (orexin A: 344±27 pA, n=7; control: 245±43, n=9, p<0.05, FIG. 7H), but not after 3-4 hours (orexin A: 305±59, n=6; p>0.05, FIG. 7I).

“orexin A: neuropeptide synthesized in neurons of the LH; orexin receptor agonist selective for the OXR1 receptor (QPLPDCCRQKTCSCRLYELLHGAGNHAAGILTL; ends and bridges not checked; cysteine pairing not given here; UniProt O43612 34-66, looked up)” showed an AMPAR/NMDAR ratio ([1]; 15 min after treatment) of 0.29±0.04, an AMPAR/NMDAR ratio ([1]; after 3-4 hours) of 0.75±0.1 and an NMDA-induced current ([2]; 3-4 hours after orexin A, n=6) of 305±59 pA. For the same substance, the NMDA-induced current ([2]; 15 min after orexin A 100 nM, n=7) was 344±27 pA.
